Structures can show the parent of a compound that is named as a salt.
What was measured:
[1] = molecular target: human α7 nAChRs transiently expressed in Xenopus laevis oocytes (Homo sapiens (Human), UniProt P36544); experiment: Oocyte electrophysiology screen (TEVC); type: cell-based; conditions: 0.01 mM test compound, peak current relative to 0.2 mM ACh
Method in brief: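 Peak inward current from 0.01 mM compound, applied 30 s, is expressed relative to a 5 s 0.2 mM ACh reference response, in triplicate. Recordings used two-electrode voltage clamp at −80 mV in Xenopus oocytes with 90 s OR2 washes.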

[2] = molecular target: human 5-HT3 serotonin receptors (Homo sapiens (Human), UniProt P46098); experiment: [3H]BRL 43694 competition binding; conditions: CHO cell membranes, [3H]BRL 43694, Cheng Prusoff; read-out: h-5HT3 Ki
Sequence of human 5-HT3 serotonin receptors (P46098 24-478): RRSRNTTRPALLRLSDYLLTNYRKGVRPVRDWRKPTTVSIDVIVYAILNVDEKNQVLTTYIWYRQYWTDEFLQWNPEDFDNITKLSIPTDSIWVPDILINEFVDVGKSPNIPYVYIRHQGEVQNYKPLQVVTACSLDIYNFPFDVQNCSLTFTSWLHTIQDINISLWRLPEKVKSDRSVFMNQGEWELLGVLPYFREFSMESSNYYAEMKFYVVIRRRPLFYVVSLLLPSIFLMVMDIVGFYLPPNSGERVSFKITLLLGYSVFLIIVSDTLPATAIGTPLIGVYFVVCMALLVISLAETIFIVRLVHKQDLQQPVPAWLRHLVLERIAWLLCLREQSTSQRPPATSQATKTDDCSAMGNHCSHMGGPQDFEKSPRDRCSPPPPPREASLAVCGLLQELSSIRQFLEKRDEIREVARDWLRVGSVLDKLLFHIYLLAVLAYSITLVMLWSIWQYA

Sequence of human α7 nAChRs transiently expressed in Xenopus laevis oocytes (P36544 23-502 limits assumed): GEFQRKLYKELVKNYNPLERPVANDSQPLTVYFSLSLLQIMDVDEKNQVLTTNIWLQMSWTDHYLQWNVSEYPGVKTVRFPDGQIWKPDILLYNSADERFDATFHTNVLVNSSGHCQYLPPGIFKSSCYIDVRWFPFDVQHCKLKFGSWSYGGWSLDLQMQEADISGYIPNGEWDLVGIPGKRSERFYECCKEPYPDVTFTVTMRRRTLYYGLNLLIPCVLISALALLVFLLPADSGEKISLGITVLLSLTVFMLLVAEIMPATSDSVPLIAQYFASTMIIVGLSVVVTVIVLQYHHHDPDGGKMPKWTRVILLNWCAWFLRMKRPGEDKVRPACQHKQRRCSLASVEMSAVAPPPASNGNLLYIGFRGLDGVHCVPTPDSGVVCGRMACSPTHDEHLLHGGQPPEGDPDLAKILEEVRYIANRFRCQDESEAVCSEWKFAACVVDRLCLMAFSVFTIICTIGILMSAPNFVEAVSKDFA

Structure (SMILES)	% ACh @ 10 μM Oocyte [1] [% ACh]	Ki [2] [nM]
Cc1csc2ccc(C(=O)N[C@@H]3C4CCN(CC4)C3(C)C)cc12 [(R)-24, (R)—N-(2,2-dimethylquinuclidin-3-yl)-3-methylbenzo[b]thiophene-5-carboxamide hydrochloride]	240	820
CC1(C)[C@H](NC(=O)c2cc3cccnc3s2)C2CCN1CC2 [(R)-28, (R)—N-(2,2-dimethylquinuclidin-3-yl)thieno[2,3-b]pyridine-2-carboxamide hydrochloride]	321	> 10000
CC1(C)[C@H](NC(=O)c2ccc3sccc3c2)C2CCN1CC2 [(R)-30, (R)—N-(2,2-dimethylquinuclidin-3-yl)benzo[b]thiophene-5-carboxamide hydrochloride]	396	2300
CC1(C)[C@H](NC(=O)c2cnc3occc3c2)C2CCN1CC2 [(R)-36, (R)—N-(2,2-dimethylquinuclidin-3-yl)furo[2,3-b]pyridine-5-carboxamide hydrochloride]	1	> 10000
CC1(C)[C@H](NC(=O)c2cc3ccsc3cn2)C2CCN1CC2 [(R)-43, (R)—N-(2,2-dimethylquinuclidin-3-yl)thieno[2,3-c]pyridine-5-carboxamide hydrochloride]	951	1500
CC1(C)[C@H](NC(=O)c2cc3ccc(Br)cc3s2)C2CCN1CC2 [(R)-46, (R)-6-bromo-N-(2,2-dimethylquinuclidin-3-yl)benzo[b]thiophene-2-carboxamide hydrochloride]	301	> 10000
CC1(C)[C@H](NC(=O)c2cc3ccc(S(C)(=O)=O)cc3s2)C2CCN1CC2 [(R)-48, (R)—N-(2,2-dimethylquinuclidin-3-yl)-6-(methylsulfonyl)benzo[b]thiophene-2-carboxamide hydrochloride]	0	> 10000
COc1ccc2cc(C(=O)N[C@@H]3C4CCN(CC4)C3(C)C)sc2c1F [(R)-51, (R)—N-(2,2-dimethylquinuclidin-3-yl)-7-fluoro-6-methoxybenzo[b]thiophene-2-carboxamide hydrochloride]	326	> 10000
Cc1ccc2cc(C(=O)N[C@@H]3C4CCN(CC4)C3(C)C)sc2c1Cl [(R)-52, (R)-7-chloro-N-(2,2-dimethylquinuclidin-3-yl)-6-methylbenzo[b]thiophene-2-carboxamide hydrochloride]	844	640
Cc1ccc2cc(C(=O)N[C@@H]3C4CCN(CC4)C3(C)C)sc2c1F [(R)-53, (R)—N-(2,2-dimethylquinuclidin-3-yl)-7-fluoro-6-methylbenzo[b]thiophene-2-carboxamide hydrochloride]	576	5900
O=C(N[C@@H]1C2CCN(CC2)C12CC2)c1ccc2occc2c1 [(R)-59, (R)—N-(1′-azaspiro[cyclopropane-1,2′-bicyclo[2.2.2]octan]-3′-yl)benzofuran-5-carboxamide hydrochloride]	374	6800
O=C(N[C@@H]1C2CCN(CC2)C12CC2)c1cc2ccoc2cn1 [(R)-75, (R)—N-(1′-azaspiro[cyclopropane-1,2′-bicyclo[2.2.2]octan]-3′-yl)furo[2,3-c]pyridine-5-carboxamide hydrochloride]	594	3300
Cc1csc2ccc(C(=O)N[C@@H]3C4CCN(CC4)C34CC4)cc12 [(R)-77, (R)-3-methyl-N-(1′-azaspiro[cyclopropane-1,2′-bicyclo[2.2.2]octan]-3′-yl)benzo[b]thiophene-5-carboxamide hydrochloride]	547	660
Cc1csc2cc(C(=O)N[C@@H]3C4CCN(CC4)C34CC4)ccc12 [(R)-78, (R)-3-methyl-N-(1′-azaspiro[cyclopropane-1,2′-bicyclo[2.2.2]octan]-3′-yl)benzo[b]thiophene-6-carboxamide hydrochloride]	31	2100
O=C(N[C@@H]1C2CCN(CC2)C12CC2)c1ccc2cc[nH]c2c1 [(R)-79, (R)—N-(1′-azaspiro[cyclopropane-1,2′-bicyclo[2.2.2]octan]-3′-yl)-1H-indole-6-carboxamide]	758	750
O=C(N[C@@H]1C2CCN(CC2)C12CC2)c1ccc2sccc2c1 [(R)-83, (R)—N-(1′-azaspiro[cyclopropane-1,2′-bicyclo[2.2.2]octan]-3′-yl)benzo[b]thiophene-5-carboxamide hydrochloride]	558	2400
O=C(N[C@@H]1C2CCN(CC2)C12CC2)c1ccc2ccoc2c1 [(R)-84, (R)—N-(1′-azaspiro[cyclopropane-1,2′-bicyclo[2.2.2]octan]-3′-yl)benzofuran-6-carboxamide hydrochloride]	341	4700
Cc1nc2cc(C(=O)N[C@@H]3C4CCN(CC4)C34CC4)ccc2o1 [(R)-85, (R)-2-methyl-N-(1′-azaspiro[cyclopropane-1,2′-bicyclo[2.2.2]octan]-3′-yl)benzo[d]oxazole-5-carboxamide]	188	> 10000
Cc1nc2ccc(C(=O)N[C@@H]3C4CCN(CC4)C34CC4)cc2o1 [(R)-86, (R)-2-methyl-N-(1′-azaspiro[cyclopropane-1,2′-bicyclo[2.2.2]octan]-3′-yl)benzo[d]oxazole-6-carboxamide]	67	> 10000
Cc1cc2cc(C(=O)N[C@@H]3C4CCN(CC4)C34CC4)ccc2o1 [(R)-91, (R)-2-methyl-N-(1′-azaspiro[cyclopropane-1,2′-bicyclo[2.2.2]octan]-3′-yl)benzofuran-5-carboxamide hydrochloride]	653	> 10000
O=C(N[C@@H]1C2CCN(CC2)C12CC2)c1ccc2oc(Cl)cc2c1 [(R)-92, (R)-2-chloro-N-(1′-azaspiro[cyclopropane-1,2′-bicyclo[2.2.2]octan]-3′-yl)benzofuran-5-carboxamide hydrochloride]	532	> 10000
O=C(N[C@@H]1C2CCN(CC2)C12CC2)c1ccc2occ(Cl)c2c1 [(R)-94, (R)-3-chloro-N-(1′-azaspiro[cyclopropane-1,2′-bicyclo[2.2.2]octan]-3′-yl)benzofuran-5-carboxamide hydrochloride]	812	1600
Cn1cnc2cc(C(=O)N[C@@H]3C4CCN(CC4)C34CC4)ccc21 [(R)-95, (R)-1-methyl-N-(1′-azaspiro[cyclopropane-1,2′-bicyclo[2.2.2]octan]-3′-yl)-1H-benzo[d]imidazole-5-carboxamide hydrochloride]	0	> 10000
O=C(N[C@@H]1C2CCN(CC2)C12CC2)c1cc2ccsc2cn1 [(R)-97, (R)—N-(1′-azaspiro[cyclopropane-1,2′-bicyclo[2.2.2]octan]-3′-yl)thieno[2,3-c]pyridine-5-carboxamide hydrochloride]	816	430

Reference: patent US10183938B2, “Geminal substituted quinuclidine amide compounds as agonists of α-7 nicotonic acetylcholine receptors” (AXOVANT SCIENCES GMBH, priority 2014, dated 2019)
